Where “and” joins values, the source holds several entries; their conditions need not be identical. Identical values can stand only once.
Experiment: xn = mol fraction of the nth substance listed

Cc1ccc(S(=O)(=O)[O-])cc1.O=C1CCC[NH+]1C1CCCCC1 + O
viscosity [mPa·s], 101 kPa
Details | x1 = 0.002718 | x1 = 0.008026 | x1 = 0.01073
298.15 K | 1.035 | – | 1.485
303.15 K | – | 1.165 | –

NCCCC(=O)O + O
viscosity, 100 kPa
Details | x1 = 0.0004 | x1 = 0.0007 | x1 = 0.0008999 | x1 = 0.001 | x1 = 0.0018 | x1 = 0.002695 | x1 = 0.004484 | x1 = 0.006266 | x1 = 0.008927
298.15 K | – | – | 0.905 mPa·s | – | – | 0.935 mPa·s | 0.963 mPa·s | 0.991 mPa·s | 1.03 mPa·s
308.15 K | 0.723 mPa·s | 0.728 mPa·s | 0.732 mPa·s | 0.731 mPa·s and 0.735 mPa·s | 0.742 mPa·s | 0.76 mPa·s | – | 0.814 mPa·s | 0.852 mPa·s
313.15 K | 0.655 mPa·s | 0.66 mPa·s | – | 0.662 mPa·s and 0.666 mPa·s | 0.672 mPa·s | – | – | – | –
318.15 K | 0.599 mPa·s | 0.603 mPa·s | 0.605 mPa·s | 0.605 mPa·s and 0.609 mPa·s | 0.614 mPa·s | 0.623 mPa·s | 0.64 mPa·s | 0.658 mPa·s | 0.684 mPa·s

O=C(O)CCl + O
293.35 K, 101 kPa
Details | viscosity [mPa·s]
x1 = 0.01308 | 11070
x1 = 0.02204 | 12080
x1 = 0.02477 | 11950
x1 = 0.0251 | 11580
x1 = 0.03355 | 12540
x1 = 0.05294 | 15100

O=C(O)[C@@H]1CCCN1 + O
viscosity [mPa·s], 101 kPa
Details | x1 = 0.00045 | x1 = 0.0009 | x1 = 0.00135 | x1 = 0.001798 | x1 = 0.002245 | x1 = 0.002695 | x1 = 0.003143 | x1 = 0.003588
293.15 K | 1.009 | 1.018 | 1.027 | 1.036 | 1.045 | 1.054 | 1.064 | 1.073
298.15 K | 0.8966 | 0.9039 | 0.9114 | 0.9192 | 0.9269 | 0.9349 | 0.9428 | 0.9507
303.15 K | 0.8027 | 0.809 | 0.8154 | 0.8221 | 0.8288 | 0.8354 | 0.8421 | 0.8487
308.15 K | 0.7236 | 0.7289 | 0.7344 | 0.7401 | 0.7456 | 0.7513 | 0.757 | 0.7625
313.15 K | 0.6566 | 0.6611 | 0.6658 | 0.6705 | 0.6753 | 0.68 | 0.6849 | 0.6894
318.15 K | 0.6007 | 0.6045 | 0.6085 | 0.6125 | 0.6164 | 0.6204 | 0.6244 | 0.6282

O=CC(Cl)(Cl)Cl + O
323.15 K, 101 kPa
Details | viscosity [mPa·s]
x1 = 0.05 | 1.031
x1 = 0.1 | 1.731
x1 = 0.15 | 2.671
x1 = 0.2 | 4.156
x1 = 0.25 | 5.987
x1 = 0.3 | 8.751
x1 = 0.35 | 11.36
x1 = 0.4 | 14.33
x1 = 0.425 | 15.57
x1 = 0.45 | 16.37
x1 = 0.465 | 17.06
x1 = 0.475 | 17.38
x1 = 0.49 | 17.26
x1 = 0.5 | 16.72
x1 = 0.55 | 14.07
x1 = 0.6 | 11.39
x1 = 0.7 | 5.695
x1 = 0.8 | 2.681
x1 = 0.9 | 1.447

OCC(F)(F)C(F)(F)F + O
viscosity [mPa·s], 100 kPa
Details | x1 = 0.5504 | x1 = 0.6564 | x1 = 0.7892 | x1 = 0.8991
298.15 K | 2.607 | 2.626 | 2.774 | 3.069
323.15 K | 1.263 | 1.278 | 1.318 | 1.401

O=CC(Cl)(Cl)Cl + OCc1ccccc1
viscosity [mPa·s], 101 kPa
Details | 298.15 K | 323.15 K
x1 = 0.0986 | 7.956 | 3.521
x1 = 0.1891 | 12.34 | 4.774
x1 = 0.2795 | 18.57 | 6.41
x1 = 0.3562 | 21.83 | 6.783
x1 = 0.4064 | 40.42 | 9.558
x1 = 0.4364 | 50.35 | 10.85
x1 = 0.4751 | 55.16 | 10.57
x1 = 0.493 | 54.24 | 10.21
x1 = 0.4998 | 51.18 | 10.01
x1 = 0.5395 | 39.89 | 8.491
x1 = 0.5925 | 24.53 | 6.78
x1 = 0.6679 | 9.262 | 3.796
x1 = 0.7564 | 2.888 | 1.639
x1 = 0.8827 | 2.072 | 1.307

O=C(O)CCl + Oc1ccccc1
323.15 K, 101 kPa
Details | viscosity [mPa·s]
x2 = 0.1128 | 3.125
x2 = 0.1918 | 3.113
x2 = 0.26 | 3.103
x2 = 0.3059 | 3.112
x2 = 0.405 | 3.121
x2 = 0.5113 | 3.142
x2 = 0.606 | 3.203
x2 = 0.6735 | 3.242
x2 = 0.7037 | 3.277
x2 = 0.7567 | 3.308
x2 = 0.8216 | 3.338
x2 = 0.903 | 3.353

CC(C)C(=O)O + [2H]O[2H]
101 kPa, x1 = 0.111
Details | viscosity
318.1 K | 2.122 mPa·s and 2.132 mPa·s and 2.14 mPa·s
318.11 K | 2.112 mPa·s
318.12 K | 2.092 mPa·s
318.13 K | 2.074 mPa·s
318.14 K | 2.06 mPa·s
318.15 K | 2.046 mPa·s
318.17 K | 2.018 mPa·s
318.19 K | 2.011 mPa·s
318.2 K | 1.997 mPa·s
318.23 K | 1.973 mPa·s
318.26 K | 1.956 mPa·s
318.29 K | 1.944 mPa·s
318.3 K | 1.934 mPa·s
318.36 K | 1.912 mPa·s
318.39 K | 1.902 mPa·s
318.48 K | 1.876 mPa·s
318.56 K | 1.857 mPa·s
318.66 K | 1.838 mPa·s
318.69 K | 1.833 mPa·s
318.98 K | 1.788 mPa·s
319.21 K | 1.763 mPa·s
319.69 K | 1.717 mPa·s
320.21 K | 1.677 mPa·s
321.2 K | 1.615 mPa·s
322.2 K | 1.562 mPa·s

— the CheMixHub viscosity set
